Results on 4 compounds are retold here after patent publication US4068074A, “Cephalosporin derivatives having at the 3-position of the cephem ring a heterocyclic thiomethyl group with a carboxy or sulfo group and at the 7-position of the cephem ring an α-heterocylic acylaminophenyl-acetamide group” (priority 1974, dated 1978).

Common to all, as to assay type: cell-based
One test relates to Proteus vulgaris 0X 19US. Put plainly: MIC against bacteria (Table I), strain (2). To be noted: 0X19US. From the text: (§1) Now, for illustrating the excellent pharmacological effects of the compounds of this invention, the values of MIC (γ/ml.) of the compounds against various bacteria are shown in Table 1, in which the compounds of this invention used are shown by example numbers.
(2) Proteus vulgaris 0X 19US

The test system of test [1] is Proteus mirabilis IXM OM-19. Put plainly: MIC against bacteria (Table I), strain (3). To be noted: IXMOM19; (3) Proteus mirabilis IXM OM-19; read-out: MIC.
Source text: as §1
(3) Proteus mirabilis IXM OM-19

Test [2] has as its system Pseudomonas aeruginosa 99 (Gentamycin resistant). The test can be described thus: MIC against bacteria (Table I), strain (5). To be noted: (5) Pseudomonas aeruginosa 99 (Gentamycin resistant); read-out: MIC.
Source text: as §1
(5) Pseudomonas aeruginosa 99 (Gentamycin resistant)

Test [3] relates to Psuedomonas ovalis IMA 1002. The test can be described thus: MIC against bacteria (Table I), strain (6). The following applies: (6) Psuedomonas ovalis IMA 1002; read-out: MIC.
Source text: as §1
(6) Psuedomonas ovalis IMA 1002

In test [4] the test system is Escherichia coli kauffmann 0-1. The test can be described thus: MIC against bacteria (Table I), strain (7).
Source text: as §1
(7) Escherichia coli kauffmann 0-1

In test [5] the test system is Klebsiella pneumoniae ATCC 10031. The test can be described thus: MIC against bacteria (Table I), strain (8). The following applies: ATCC10031.
Source text: as §1
(8) Klebsiella pneumoniae ATCC 10031

For the next test, the system named is Salmonella typhi H901 W. Put plainly: MIC against bacteria (Table I), strain (9). The following applies: Salmonella enterica, TYPHI.
Source text: as §1
(9) Salmonella typhi H901 W

For a further test, the system named is Salmonella enteritidis. Put plainly: MIC against bacteria (Table I), strain (10). To be noted: Salmonella enterica; (10) Salmonella enteritidis; read-out: MIC.
Source text: as §1
(10) Salmonella enteritidis

Test [6] has as its system Shigella flexneri 2a 1675. Put plainly: MIC against bacteria (Table I), strain (11). The following applies: 2A1675; (11) Shigella flexneri 2a 1675; read-out: MIC.
Source text: as §1

Another test has as its system Shigella sonnei II 37148. The test can be described thus: MIC against bacteria (Table I), strain (12). To be noted: II37148; (12) Shigella sonnei II 37148; read-out: MIC.
Source text: as §1

Test [7] deals with Bacillus megatherium 10778. The test can be described thus: MIC against bacteria (Table I), strain (13). To be noted: (13) Bacillus megatherium 10778; read-out: MIC.
Source text: as §1

In test [8] the test system is Bacillus subtilis ATCC 6633. Put plainly: MIC against bacteria (Table I), strain (14). The following applies: ATCC6633; (14) Bacillus subtilis ATCC 6633; read-out: MIC.
Source text: as §1
(14) Bacillus subtilis ATCC 6633

For test [9], the system named is Micrococcus flavus ATCC 10240. Put plainly: MIC against bacteria (Table I), strain (15). To be noted: ATCC10240.
Source text: as §1
(15) Micrococcus flavus ATCC 10240

Test [10] concerns Staphylococcus aureus 209P. Put plainly: MIC against bacteria (Table I), strain (16).
Source text: as §1
(16) Staphylococcus aureus 209P

The subject of test [11] is Staphylococcus Shimanishi. Put plainly: MIC against bacteria (Table I), strain (17).
Source text: as §1
(17) Staphylococcus Shimanishi

The test system of a further test is Staphylococcus Onuma. Put plainly: MIC against bacteria (Table I), strain (18).
Source text: as §1
(18) Staphylococcus Onuma

The mark [12] stands for this setting: (2) Proteus vulgaris 0X 19US, read-out: MIC.
[13] abbreviates: (8) Klebsiella pneumoniae ATCC 10031, read-out: MIC.
[14] abbreviates: (15) Micrococcus flavus ATCC 10240, read-out: MIC.
Setting [15] is: (17) Staphylococcus Shimanishi, read-out: MIC.
The mark [16] stands for this setting: (18) Staphylococcus Onuma, read-out: MIC.

Each structure is given as a SMILES string. Values after ≈ are worked out from the molar mass of the structure shown. Like-named read-outs stand apart in the source and are kept apart here. Bounds are passed on as bounds.

Turning to `Cc1nc(SCC(=O)O)cc(SCC2=C(C(=O)O)N3C(=O)[C@@H](NC(=O)[C@H](NC(=O)c4cnccc4O)c4ccccc4)[C@H]3SC2)n1` [Example 17, 7-[D-α-(4-hydroxynicotinoylamido)-α-phenylacetamido]-3-(6-carboxymethylthio-2-methylpyrimidin-4-yl)thiomethyl-Δ^3-cephem-4-carboxylic acid], the MIC was determined as 1.56 µg/mL (≈ 2.28 µM) with Proteus vulgaris 0X 19US (setting [12]); 0.19 µg/mL (≈ 0.278 µM) in [1]; 50 µg/mL (≈ 73.2 µM) in [2]; 25 µg/mL (≈ 36.6 µM) in test [3]; 6.25 µg/mL (≈ 9.15 µM) in test [4] (Escherichia coli); 6.25 µg/mL (≈ 9.15 µM) in [5] (Klebsiella pneumoniae). For the same compound, the MIC amounted to 3.13 µg/mL (≈ 4.58 µM) against Salmonella typhi H901 W; 0.19 µg/mL (≈ 0.278 µM) in the test on Salmonella enteritidis; 3.13 µg/mL (≈ 4.58 µM) in [6]; 6.25 µg/mL (≈ 9.15 µM) in the test with Shigella sonnei II 37148; 0.39 µg/mL (≈ 0.571 µM) in [7]; 0.39 µg/mL (≈ 0.571 µM) in test [8]. Further, the MIC in test [9] (Micrococcus flavus) is 6.25 µg/mL (≈ 9.15 µM); in test [10] (Staphylococcus aureus, 209P), 0.19 µg/mL (≈ 0.278 µM); in test [11] (Staphylococcus), 6.25 µg/mL (≈ 9.15 µM); against Staphylococcus Onuma (Staphylococcus), 6.25 µg/mL (≈ 9.15 µM).
As for `O=C(O)Cn1nc(SCC2=C(C(=O)O)N3C(=O)[C@@H](NC(=O)[C@H](NC(=O)c4cnccc4O)c4ccccc4)[C@H]3SC2)ccc1=O` [Example 18, 7-[D-α-(4-hydroxynicotinoylamido)-α-phenylacetamido]-3-(1-carboxymethyl-6(1H)-pyridazinon-3-yl)thiomethyl-Δ^3-cephem-4-carboxylic acid], the MIC in the test on Proteus vulgaris 0X 19US (setting [12]) is 1.56 µg/mL (≈ 2.39 µM); in test [1] it was 0.78 µg/mL (≈ 1.2 µM); in test [2], 25 µg/mL (≈ 38.3 µM); in test [3], 25 µg/mL (≈ 38.3 µM); in test [4] (Escherichia coli), 12.5 µg/mL (≈ 19.2 µM); in test [5] (setting [13]) it was 25 µg/mL (≈ 38.3 µM). Further, the minimum inhibitory concentration (MIC) against Salmonella typhi H901 W was determined as 3.13 µg/mL (≈ 4.8 µM); in the test on Salmonella enteritidis, 1.56 µg/mL (≈ 2.39 µM); in [6], 12.5 µg/mL (≈ 19.2 µM); in the test on Shigella sonnei II 37148 it was 25 µg/mL (≈ 38.3 µM); in test [7], 0.39 µg/mL (≈ 0.598 µM); in [8], 0.39 µg/mL (≈ 0.598 µM). The MIC is 25 µg/mL (≈ 38.3 µM) in [9] (setting [14]); 1.56 µg/mL (≈ 2.39 µM) in [10] (Staphylococcus aureus, 209P); 6.25 µg/mL (≈ 9.58 µM) in [11] (setting [15]); 6.25 µg/mL (≈ 9.58 µM) with Staphylococcus Onuma (setting [16]).
Take `Nc1nc(SCC(=O)O)cc(SCC2=C(C(=O)O)N3C(=O)[C@@H](NC(=O)[C@H](NC(=O)c4cnccc4O)c4ccccc4)[C@H]3SC2)n1` [Example 19, 7-[D-α-(4-hydroxynicotinoylamido)-α-phenylacetamido]-3-(2-amino-4-carboxymethylthiopyrimidin-6-yl)thiomethyl-Δ^3-cephem-4-carboxylic acid]: the minimum inhibitory concentration (MIC) against Proteus vulgaris 0X 19US (Proteus vulgaris) was 6.25 µg/mL (≈ 9.14 µM); in [1], 0.39 µg/mL (≈ 0.57 µM); in test [3], 50 µg/mL (≈ 73.1 µM); in test [4] ((7) Escherichia coli kauffmann 0-1, read-out: MIC), 12.5 µg/mL (≈ 18.3 µM); in [5] (Klebsiella pneumoniae) it was 25 µg/mL (≈ 36.6 µM); with Salmonella typhi H901 W it was 3.13 µg/mL (≈ 4.58 µM). Moreover, the minimal inhibitory concentration (MIC) with Salmonella enteritidis was determined as 1.56 µg/mL (≈ 2.28 µM); in test [6] it was 6.25 µg/mL (≈ 9.14 µM); with Shigella sonnei II 37148, 25 µg/mL (≈ 36.6 µM); in test [7] it was 0.78 µg/mL (≈ 1.14 µM); in test [8], 0.78 µg/mL (≈ 1.14 µM); in [9] (setting [14]) it was 12.5 µg/mL (≈ 18.3 µM). Besides, the minimal inhibitory concentration (MIC) was found to be 3.13 µg/mL (≈ 4.58 µM) in test [10] (Staphylococcus aureus, 209P); 12.5 µg/mL (≈ 18.3 µM) in [11] (setting [15]); 12.5 µg/mL (≈ 18.3 µM) with Staphylococcus Onuma (setting [16]).
As to `Cc1ncc(C(=O)N[C@@H](C(=O)N[C@@H]2C(=O)N3C(C(=O)O)=C(CSc4nnc(SCC(=O)O)s4)CS[C@H]23)c2ccccc2)c(O)n1` [Example 20, 7-[D-α-(4-hydroxy-2-methylpyrimidin-5-ylcarboxamido)-α-phenylacetamido]-3-(5-carboxymethylthio-1,3,4-thiadiazol-2-yl)thiomethyl-Δ^3-cephem-4-carboxylic acid], the MIC in the test on Proteus vulgaris 0X 19US (setting [12]) is less than 0.09 µg/mL; in [1] it was 0.39 µg/mL (≈ 0.565 µM); in test [2], 25 µg/mL (≈ 36.2 µM); in test [3], 50 µg/mL (≈ 72.5 µM); in test [4] (Escherichia coli) it was 12.5 µg/mL (≈ 18.1 µM); in test [5] (setting [13]), 25 µg/mL (≈ 36.2 µM). In addition, the MIC in the test on Salmonella typhi H901 W was determined as 12.5 µg/mL (≈ 18.1 µM); in the test on Salmonella enteritidis, 3.13 µg/mL (≈ 4.54 µM); in [6], 6.25 µg/mL (≈ 9.06 µM); with Shigella sonnei II 37148 it was 12.5 µg/mL (≈ 18.1 µM); in test [7], 1.56 µg/mL (≈ 2.26 µM); in [8] it was 3.13 µg/mL (≈ 4.54 µM). For the same compound, the MIC in test [9] (Micrococcus flavus) was determined as 6.25 µg/mL (≈ 9.06 µM); in [10] ((16) Staphylococcus aureus 209P, read-out: MIC), 3.13 µg/mL (≈ 4.54 µM); in test [11] (Staphylococcus), 12.5 µg/mL (≈ 18.1 µM); with Staphylococcus Onuma (Staphylococcus), 12.5 µg/mL (≈ 18.1 µM).
